According to ChEMBL document CHEMBL5107958, “Phosphoramidate Prodrugs Continue to Deliver, The Journey of Remdesivir (GS-5734) from RSV to SARS-CoV-2” (ACS Med Chem Lett, 2022):

What was measured:
[1] = test system: Ebolavirus; assay: Potency index, ratio of EC50 of GS-441524 to EC50 of test compound for antiviral activity against Ebola infected in human HeLa cells assessed as reduction in viral replication; assay type: functional
[2] = test system: Marburgvirus; assay: Potency index, ratio of EC50 of GS-441524 to EC50 of test compound for antiviral activity against MARV Rec. Bat371-GFP infected in human Huh-7 cells assessed as reduction in viral replication incubated for 48 to 144 hrs by fluorescence based assay; assay type: functional; conditions: time 48-144 hrs
[3] = test system: Nipah virus; assay: Potency index, ratio of EC50 of GS-441524 to EC50 of test compound for antiviral activity against Nipah M1999 infected in human HeLa cells assessed as reduction in viral replication incubated for 48 to 144 hrs by reporter virus assay; assay type: functional, Henipavirus nipahense; conditions: time 48-144 hrs
[4] = test system: Measles morbillivirus; assay: Antiviral activity against Measles Rec.rMVEZGFP(3) infected in human HeLa cells assessed as reduction in viral replication incubated for 48 to 144 hrs by fluorescence based assay; assay type: functional, organism-based
[5] = test system: Measles morbillivirus; assay: Potency index, ratio of EC50 of GS-441524 to EC50 of test compound for antiviral activity against Measles Rec.rMVEZGFP(3) infected in human HeLa cells assessed as reduction in viral replication incubated for 48 to 144 hrs by fluorescence based assay; assay type: functional; conditions: time 48-144 hrs
[6] = test system: Measles morbillivirus; assay: Antiviral activity against Measles virus infected in HMVEC cells assessed as reduction in viral replication; assay type: functional, organism-based
[7] = test system: Measles morbillivirus; assay: Potency index, ratio of EC50 of GS-441524 to EC50 of test compound for antiviral activity against Measles virus infected in HMVEC cells assessed as reduction in viral replication; assay type: functional
[8] = test system: SARS-CoV; assay: Antiviral activity against SARS-CoV infected in HAE cells assessed as reduction in viral replication at MOI of 0.5 preincubated for 3 hrs followed by virus removal measured after 48 hrs by Hoechst 33258 staining based assay; assay type: functional, organism-based; conditions: Severe acute respiratory syndrome-related coronavirus
[9] = test system: SARS-CoV; assay: Potency index, ratio of EC50 of GS-441524 to EC50 of test compound for antiviral activity against SARS-CoV infected in HAE cells assessed as reduction in viral replication at MOI of 0.5 preincubated for 3 hrs followed by virus removal measured after 48 hrs by Hoechst 33258 staining based assay; assay type: functional, Severe acute respiratory syndrome-related coronavirus; conditions: time 51 hrs
[10] = test system: SARS-CoV-2; assay: Antiviral activity against SARS-CoV-2 infected in human A549 cells expressing hACE2 assessed as reduction in viral replication at MOI of 0.025 incubated for 48 hrs by luciferase based assay; assay type: functional, organism-based; conditions: Severe acute respiratory syndrome coronavirus 2, A549, 48 h
[11] = test system: SARS-CoV-2; assay: Potency index, ratio of EC50 of GS-441524 to EC50 of test compound for antiviral activity against SARS-CoV-2 infected in human A549 cells expressing hACE2 assessed as reduction in viral replication at MOI of 0.025 incubated for 48 hrs by luciferase based assay; assay type: functional, Severe acute respiratory syndrome coronavirus 2
[12] = test system: SARS-CoV-2; assay: Antiviral activity against SARS-CoV-2 infected in human Huh-7 cells assessed as reduction in virus-induced cytopathic effect at MOI of 0.0037 measured after 4 days by MTS assay; assay type: functional, organism-based; conditions: Severe acute respiratory syndrome coronavirus 2, Huh-7, 96 h
[13] = test system: SARS-CoV-2; assay: Potency index, ratio of EC50 of GS-441524 to EC50 of test compound for antiviral activity against SARS-CoV-2 infected in human Huh-7 cells assessed as reduction in virus-induced cytopathic effect at MOI of 0.0037 measured after 4 days by MTS assay; assay type: functional, Severe acute respiratory syndrome coronavirus 2; conditions: time 4 day
[14] = test system: SARS-CoV-2; assay: Potency index, ratio of EC50 of GS-441524 to EC50 of test compound for antiviral activity against SARS-CoV-2 infected in African green monkey Vero E6 cells assessed as reduction in viral replication; assay type: functional, Severe acute respiratory syndrome coronavirus 2
[15] = test system: SARS-CoV-2; assay: Antiviral activity against SARS-CoV-2 infected in human Caco-2 cells assessed as reduction in viral replication at MOI of 0.01 measured after 72 hrs by qRT-PCR analysis; assay type: functional, organism-based; conditions: Severe acute respiratory syndrome coronavirus 2, Caco-2, 72 h
[16] = test system: SARS-CoV-2; assay: Antiviral activity against SARS-CoV-2 infected in human Calu-3 cells assessed as reduction in viral replication at MOI of 0.01 measured after 72 hrs by qRT-PCR analysis; assay type: functional, organism-based; conditions: Severe acute respiratory syndrome coronavirus 2, Calu-3, 72 h
[17] = test system: SARS-CoV-2; assay: Potency index, ratio of EC50 of GS-441524 to EC50 of test compound for antiviral activity against SARS-CoV-2 infected in human Calu-3 cells assessed as reduction in viral replication at MOI of 0.01 measured after 72 hrs by qRT-PCR analysis; assay type: functional, Severe acute respiratory syndrome coronavirus 2
[18] = test system: SARS-CoV-2; assay: (§1) Antiviral activity against SARS-CoV-2 infected in human Calu-3 2B4 cells assessed as reduction in viral replication at MOI of 0.01 preincubated for 2 hrs followed by viral infection for 30 mins and subsequent virus removal and addition of medium containing compound measured after 72 hrs by RT-qPCR analysis; assay type: functional, organism-based; conditions: Severe acute respiratory syndrome coronavirus 2, Calu-3 2B4
[19] = test system: SARS-CoV-2; assay: as §1, with “Potency index, ratio of EC50 of GS-441524 to EC50 of test compound for antiviral” for “Antiviral”, “activity” for “activity against”; assay type: functional, Severe acute respiratory syndrome coronavirus 2; conditions: time 74.5 hrs
[20] = test system: SARS-CoV-2; assay: Antiviral activity against SARS-CoV-2 infected in HAE cells assessed as reduction in viral replication at MOI of 0.5 incubated for 2 hrs followed by virus removal measured after 48 hrs by plaque assay; assay type: functional, organism-based; conditions: Severe acute respiratory syndrome coronavirus 2, HAE
[21] = test system: SARS-CoV-2; assay: Antiviral activity against SARS-CoV-2 infected in human PSC-derived lung epithelial cells assessed as reduction in viral replication; assay type: functional, organism-based; conditions: Severe acute respiratory syndrome coronavirus 2, Epithelial cell
[22] = test system: SARS-CoV-2; assay: Potency index, ratio of EC50 of GS-441524 to EC50 of test compound for antiviral activity against SARS-CoV-2 infected in human PSC-derived lung epithelial cells assessed as reduction in viral replication; assay type: functional, Severe acute respiratory syndrome coronavirus 2, PSC-derived lung epithelial cell
[23] = test system: Middle East respiratory syndrome-related coronavirus; assay: Antiviral activity against MERS-CoV infected in HAE cells assessed as reduction in viral replication at MOI of 0.5 incubated for 3 hrs followed by virus removal measured after 48 hrs by Hoechst 33258 staining based assay; assay type: functional, organism-based
[24] = test system: Middle East respiratory syndrome-related coronavirus; assay: Potency index, ratio of EC50 of GS-441524 to EC50 of test compound for antiviral activity against MERS-CoV infected in HAE cells assessed as reduction in viral replication at MOI of 0.5 incubated for 3 hrs followed by virus removal measured after 48 hrs by Hoechst 33258 staining based assay; assay type: functional; conditions: time 51 hrs
[25] = AUC (0 to infinity) in ferret at 10 mg/kg, iv; assay type: ADME, organism-based, Mustela putorius furo; design: time infinity, dose 10 mg/kg, route iv; conditions: in vivo
[26] = Prodrug conversion in ferret assessed as AUC (0 to last) of parent nucleoside compound at 10 mg/kg, iv; assay type: ADME, organism-based, Mustela putorius furo; design: time 0 - last, dose 10 mg/kg, route iv; conditions: in vivo
[27] = Prodrug conversion in ferret lung assessed as triphosphate metabolite formation at 10 mg/kg, iv measured after 24 hrs; assay type: ADME, organism-based, Mustela putorius furo; conditions: in vivo
[28] = Clearance in human at 2.5 mg/kg, iv; assay type: ADME, organism-based; conditions: in vivo
[29] = AUC (0 to infinity) in human at 2.5 mg/kg, iv; assay type: ADME, organism-based; design: time infinity, dose 2.5 mg/kg, route iv; conditions: in vivo
[30] = Prodrug conversion in human assessed as AUC (0 to last) of parent nucleoside compound at 2.5 mg/kg, iv; assay type: ADME, organism-based; design: time 0 - last, dose 2.5 mg/kg, route iv; conditions: in vivo
[31] = Stability of prodrug in mouse assessed as half life; assay type: ADME; conditions: in vivo

CCC(CC)OC(=O)[C@H](C)N[P@](=O)(OC[C@H]1O[C@@](C#N)(c2ccc3c(N)ncnn23)[C@H](O)[C@@H]1O)Oc1ccccc1
Ratio [1]: >143 | Ratio [2]: 136 | Ratio [3]: 32 | EC50 [4]: 37 nM | Ratio [5]: 27 | EC50 [6]: 60 nM | Ratio [7]: 13 | EC50 [8]: 69 nM | Ratio [9]: 2.6 | EC50 [10]: 115 nM | Ratio [11]: 7.6 | EC50 [12]: < 1 nM | Ratio [13]: >1000 | Ratio [14]: 0.7 | EC50 [15]: 1 nM | EC50 [16]: 110 nM | Ratio [17]: 2.4 | EC50 [18]: 280 nM | Ratio [19]: 2.2 | EC50 [20]: 10 nM | EC50 [21]: 140 nM | Ratio [22]: 5.3 | EC50 [23]: 74 nM | Ratio [24]: 12 | AUC(0-inf) [25]: 7 µM·h | AUClast [26]: 18.2 µM·h | Drug metabolism [27]: 1.28 nmol/g | clearance [28]: 14.3 mL/min/kg | AUC(0-inf) [29]: 5 µM·h | AUClast [30]: 7.5 µM·h | t1/2 [31]: 5 min
